A short description of data set [1]: Microsomal stability assay, mouse liver microsomes (MLM). The format is in vitro ADME. To be noted: 0.5 mg/mL protein, 1 μM substrate. The procedure, abridged:
(§1)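 Half-life and CLint come from the ln(% remaining)–time slope, with remaining compound quantified by LC-MS/MS after ice-cold solvent quench of timed samples. Incubations used 1 μM test compound and 0.5 mg·mL^−1 human or mouse liver microsomal protein at 37° C.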
Background: Microsomes from liver hold many membrane-bound enzymes, among them those of drug oxidation.

Data set [2] is described as follows: Solubility (Sol), medium not stated. The following applies: cells not marked (FESSIF). The format is physicochemical.
The test system of data set [3] is BRAF monomers in A375 cells. Kind of data set: A375 AlphaLISA SureFire pERK1/2 cellular assay (monomer). The format is cell-based. To be noted: Homo sapiens, A-375; A375 cells, 1 hr; read-out: pERK A375 (1 hr) pIC50 (converted). The essentials: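 BRAF^V600E A375 melanoma cells seeded at 30,000/well in DMEM with 10% FBS, dosed without medium exchange in a 10-point series from 10 μM at 1/2-log steps, 1 h at 37 °C. Phospho-ERK1/2 (Thr202/Tyr204) measured in lysates by AlphaLISA SureFire; absolute IC50 relative to DMSO control.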

A short description of data set [4]: Plasma protein binding assay, mouse plasma (mPPB). Type of data set: in vitro ADME. The following applies: 5 μM, equilibrium dialysis 4 hours 37° C. The procedure, abridged: (§2)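 Equilibrium dialysis of 5 μM compound in previously frozen human or mouse plasma against phosphate buffer, 4 h at 37 °C. Both chambers quantified by LC-MS/MS; % free = (1−((PC−PF)/PC))×100.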

A short description of data set [5]: Microsomal stability assay, human liver microsomes (HLM). Type of data set: in vitro ADME. To be noted: 0.5 mg/mL protein, 1 μM substrate. The procedure, abridged: as §1
Data set [6] is described as follows: Plasma protein binding assay, human plasma (hPPB). Type of data set: in vitro ADME. To be noted: 5 μM, equilibrium dialysis 4 hours 37° C. The procedure, abridged: as §2
Data set [7] concerns RAF dimers in HCT-116 cells. Kind of data set: HCT-116 AlphaLISA SureFire pERK1/2 cellular assay (dimer). The following applies: Homo sapiens, HCT-116; HCT116 cells pre-dosed with 1 μM Encorafenib, 1 hr; read-out: pERK HCT116 dimer (1 hr) pIC50 (converted). Type of data set: cell-based. The essentials:
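HCT-116 (KRAS G13D) cells, 30,000/well, pretreated 1 h with 1 μM Encorafenib to induce RAF dimers, washed, then dosed 1 h at 37° C with compound (10-point, top 10 μM, 1/2 log steps) in growth medium. pERK1/2 (T202/Y204) measured by AlphaLISA SureFire; absolute IC50 versus DMSO control.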

We go through nine molecules from patent US12304912B2, “Fused bicyclic RAF inhibitors and methods for use thereof” (Jazz Pharmaceuticals Ireland Limited, priority 2020, dated 2025).

For the molecule `O=C1CCc2c(Oc3ccc4c(c3)CC(c3nc(-c5cccc(F)c5)c[nH]3)CO4)ccnc2N1` (stereo not drawn) [Compound 15, 5-[3-[4-(3-fluorophenyl)-1H-imidazol-2-yl]chroman-6-yl]oxy-3,4-dihydro-1H-1,8-naphthyridin-2-one], the intrinsic metabolic clearance (microsomal CLint) (as a rule, the rate of metabolic loss divided by the concentration) at 1 μM in data set [1] was determined as 33.9 µL/min/mg; in data set [5], 39.9 µL/min/mg. In data set [2], this molecule gave a Sol of less than 1.1 mg/L. Moreover, the IC50 in data set [3] is 24 nM; in data set [7] it was 67.6 nM. The “mPPB (% free)” value in data set [4] was found to be 1.3 % free. Besides, in data set [6], the “hPPB (% free)” value worked out at 0.2 % free.
Take `COc1cncc(-c2c[nH]c(C3COc4ccc(Oc5ccnc6c5CCC(=O)N6)cc4C3)n2)c1` (stereo not drawn) [Compound 17, 5-[3-[4-(5-methoxy-3-pyridyl)-1H-imidazol-2-yl]chroman-6-yl]oxy-3,4-dihydro-1H-1,8-naphthyridin-2-one]: the intrinsic metabolic clearance (microsomal CLint) at 1 μM in data set [1] came to 16.5 µL/min/mg; in data set [5], 31.5 µL/min/mg. In data set [2], the Sol is less than 1.2 mg/L. The IC50 in data set [3] was 933 nM; in data set [7], 347 nM. For the same molecule, the “mPPB (% free)” value in data set [4] worked out at 2.4 % free. Besides, in data set [6], the “hPPB (% free)” value is recorded as 0.7 % free.
Take `O=C1CCc2c(Oc3ccc4c(c3)CC(c3nc(-c5ccc(C(F)(F)F)cc5)c[nH]3)CO4)ccnc2N1` (stereo not drawn) [Compound 20, 5-[3-[4-[4-(trifluoromethyl)phenyl]-1H-imidazol-2-yl]chroman-6-yl]oxy-3,4-dihydro-1H-1,8-naphthyridin-2-one]: the intrinsic metabolic clearance (microsomal CLint) at 1 μM was 3 µL/min/mg in data set [1] and 16.9 µL/min/mg in data set [5]. In data set [2], this molecule displayed a Sol of less than 1.3 mg/L. The IC50 in data set [3] was 741 nM; in data set [7], 603 nM. Further, in data set [4], the “mPPB (% free)” value stood at 0.1 % free. Also, the “hPPB (% free)” value in data set [6] is 0.1 % free.
Take `N#Cc1ccc(-c2c[nH]c(C3COc4ccc(Oc5ccnc6c5CCC(=O)N6)cc4C3)n2)cc1` (stereo not drawn) [Compound 21]: the figures for the microsomal CLint at 1 μM in data set [1] and in data set [5] were 23.2 µL/min/mg and 15.6 µL/min/mg, respectively. The Sol in data set [2] is on record as less than 1.2 mg/L. Further, the IC50 was 933 nM in data set [3] and 275 nM in data set [7]. Also, in data set [4], the “mPPB (% free)” value was found to be 1.6 % free. Moreover, in data set [6], the “hPPB (% free)” value was 0.7 % free.
Take `O=C1CCc2c(Oc3ccc4c(c3)CC(c3nc5c(C(F)(F)F)cccc5[nH]3)CO4)ccnc2N1` (stereo not drawn) [Compound 27]: the figures for the intrinsic metabolic clearance (microsomal CLint) at 1 μM in data set [1] and in data set [5] were 148 µL/min/mg and 102 µL/min/mg, respectively. This molecule displayed a Sol in data set [2] of less than 1.2 mg/L. Also, the IC50 in data set [3] is 389 nM; in data set [7] it was 380 nM. For the same molecule, the “mPPB (% free)” value in data set [4] was less than 0.1 % free. Besides, the “hPPB (% free)” value in data set [6] is reported as less than 0.1 % free.
As for `Cc1cc(C(F)(F)F)cc2nc(C3COc4ccc(Oc5ccnc6c5CCC(=O)N6)cc4C3)[nH]c12` (stereo not drawn) [Compound 31], the intrinsic metabolic clearance (microsomal CLint) at 1 μM came out at 26 µL/min/mg in data set [1] and 34.6 µL/min/mg in data set [5]. Further, in data set [2], the Sol is given as less than 1.2 mg/L. Further, the IC50 in data set [3] is 126 nM; in data set [7], 871 nM. Further, the “mPPB (% free)” value in data set [4] stood at 0.2 % free. Also, the “hPPB (% free)” value in data set [6] is on record as less than 0.1 % free.
For `CN(C)Cc1cc(C(F)(F)F)cc2nc(C3COc4ccc(Oc5ccnc6c5CCC(=O)N6)cc4C3)[nH]c12` (stereo not drawn) [Compound 33], the intrinsic metabolic clearance (microsomal CLint) at 1 μM in data set [1] turned out to be 37 µL/min/mg; in data set [5], 77.3 µL/min/mg. In data set [2], this molecule gave a Sol of 7 mg/L. Further, the IC50 is 380 nM in data set [3] and 661 nM in data set [7]. Besides, the “mPPB (% free)” value in data set [4] is 3.1 % free. In addition, the “hPPB (% free)” value in data set [6] stood at 2 % free.
`O=C1CCc2c(Oc3ccc4c(c3)CN(C(=O)NCc3ccccc3)CC4)ccnc2N1` [Compound 48]: the microsomal CLint at 1 μM amounted to 38.4 µL/min/mg in data set [1] and 40.5 µL/min/mg in data set [5]. The molecule also came in with a Sol in data set [2] of less than 1.1 mg/L. In addition, the IC50 was 9120 nM in data set [3] and 7240 nM in data set [7]. Moreover, in data set [4], the “mPPB (% free)” value is 3 % free. Further, the “hPPB (% free)” value in data set [6] is 2 % free.
`O=C1CCc2c(Oc3ccc4c(c3)CN(C(=O)Nc3ccccc3C(F)(F)F)CC4)ccnc2N1` [Compound 49]: the intrinsic clearance (microsomal CLint) at 1 μM in data set [1] is 83.6 µL/min/mg; in data set [5], 82.2 µL/min/mg. Further, the Sol in data set [2] is listed as less than 1.2 mg/L. Besides, the IC50 in data set [3] is 7760 nM; in data set [7], 8910 nM. The “mPPB (% free)” value in data set [4] was 2.5 % free. Besides, in data set [6], the “hPPB (% free)” value was 1.9 % free.
